Laboratory results taken from patent US12653785B2, “Compositions and methods for administering a YAP1/WWRT1 inhibiting composition and a GLS1 inhibiting composition” (UNIVERSITY OF PITTSBURGH—OF THE COMMONWEALTH SYSTEM OF …, priority 2020, dated 2026).

Assays:
[1] = tested on: monocrotaline rat model of PH; details: drugs delivered systemically; cited from earlier work
[2] = Encapsulation efficiency, loading and release kinetics of drugs from PLGA microparticles; assay type: physicochemical; details: different formulations (single drug or combination); 0.2% tween 80, 37° C.
Experimental: The morphology of the microparticles was characterized using scanning electron microscopy (SEM—JEOL JSM6510) and the average size of the blank microparticles was determined using dynamic light scattering (Malvern, Worcestershire, UK). The release kinetics of the drugs from PLGA microparticles was determined by incubating 1 mg of microparticles with or without drugs in 1 mL of 0.2% tween 80 (Fisher Scientific, Pittsburgh, PA) in centrifuge tubes on end-over-end rotator at 37° C. Every day for 10 days, the tubes were centrifuged at 2000 g for 5 min, 0.8 mL of the supernatant was retrieved and frozen at −20° C., and 0.8 mL of fresh 0.2% tween 80 was replaced in the tubes. These tubes were then returned to the incubator.
In order to assess the concentration of verteporfin, UV-vis spectroscopy plate reader (SpectraMax, Molecular Devices, Sunnyvale, CA) was utilized. […] Using this wavelength, a standard curve was plotted, and the concentration of the released verteporfin from microparticles was determined. The cumulative amount of verteporfin released from the microparticles was quantified and utilized to determine the percentage encapsulation efficiency and percentage loading.
In order to assess the concentration of CB-839, a high-performance liquid chromatography (HPLC Ultimate 3000, Fisher Scientific, Pittsburgh, PA) protocol was developed. […]

Row | SMILES | reversal of PH (hemodynamic and histopathologic manifestations) [1] | duration of sustained release from PLGA microparticles [2]
1 | CN(C)c1ccc(C2Nc3ccc4ccccc4c3C3=C2C(=O)CC(C)(C)C3)cc1Br (centres unmarked) [C968, 5-(3-Bromo-4-(dimethylamino)phenyl)-2,2-dimethyl-2,3,5,6-tetrahydrobenzo[a]phenanthridin-4(1H)-one] | substantial reversal | 
2 | O=C(Cc1cccc(OC(F)(F)F)c1)Nc1ccc(CCCCc2nnc(NC(=O)Cc3ccccn3)s2)nn1 [CB-839] | substantial reversal | 10 days
3 | C=Cc1c(C)c2cc3nc(cc4[nH]c(cc5nc(cc1[nH]2)C(C)=C5CCC(=O)O)c(CCC(=O)OC)c4C)[C@@]1(C)C3=CC=C(C(=O)OC)[C@H]1C(=O)OC [verteporfin, 3-[(23S,24R)-14-ethenyl-5-(3-methoxy-3-oxopropyl)-22,23-bis(methoxycarbonyl)-4,10,15,24-tetramethyl-25,26,27,28-tetraazahexacyclo[16.6.1.1^3,6.1^8,11.1^13,16.0^19,24]octacosa-1,3,5,7,9,11(27),12,14,16,18(25),19,21-dodecaen-9-yl]propanoic acid] | substantial reversal | 6 days
